{"source": "paper PMC9979347", "about": "(ACS Omega, 2023)", "key": {"[1]": {"molecular_target": "hCA I (Homo sapiens, UniProt P00915)", "sequence (P00915 whole entry)": "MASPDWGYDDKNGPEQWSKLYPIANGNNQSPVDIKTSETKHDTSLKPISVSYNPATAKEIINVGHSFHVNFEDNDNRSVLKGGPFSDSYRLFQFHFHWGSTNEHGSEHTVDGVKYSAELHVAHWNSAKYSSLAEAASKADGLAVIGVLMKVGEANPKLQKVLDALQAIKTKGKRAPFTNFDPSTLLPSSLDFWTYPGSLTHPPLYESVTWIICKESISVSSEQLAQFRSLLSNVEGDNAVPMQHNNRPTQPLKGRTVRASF", "assay": "stopped-flow CO2 hydration inhibition assay", "type": "biochemical"}, "[2]": {"molecular_target": "hCA IX (Homo sapiens, UniProt Q16790)", "assay": "biochemical", "type": "biochemical"}, "[3]": {"molecular_target": "hCA XII (Homo sapiens, UniProt O43570)", "sequence (O43570 25-354)": "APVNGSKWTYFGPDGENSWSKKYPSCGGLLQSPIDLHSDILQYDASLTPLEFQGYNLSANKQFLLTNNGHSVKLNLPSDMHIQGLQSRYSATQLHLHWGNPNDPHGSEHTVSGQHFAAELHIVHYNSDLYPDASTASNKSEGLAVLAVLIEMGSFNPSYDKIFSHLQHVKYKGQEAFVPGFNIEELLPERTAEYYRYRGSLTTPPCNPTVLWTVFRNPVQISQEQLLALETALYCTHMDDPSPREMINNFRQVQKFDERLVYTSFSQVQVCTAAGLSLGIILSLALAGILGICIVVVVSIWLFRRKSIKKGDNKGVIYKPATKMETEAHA", "assay": "biochemical"}, "[4]": {"molecular_target": "hCA II (Homo sapiens, UniProt P00918)", "assay": "stopped-flow CO2 hydration inhibition assay", "type": "biochemical"}, "[5]": {"test_system": "SR", "assay": "NCI-60 SRB screen", "type": "cell-based, human", "details": "five-dose, 48 h"}, "[6]": {"test_system": "hypoxic U251 cells", "assay": "cells", "details": "Homo sapiens, U-251, 48 h, read-out: Cytotoxicity IC50 (μM ± SD) U251"}, "[7]": {"test_system": "hypoxic HCT116 cells", "assay": "cells", "details": "Homo sapiens, HCT-116, 48 h, read-out: Cytotoxicity IC50 (μM ± SD) HCT116"}, "[8]": {"test_system": "HEK293T cells", "details": "for selectivity against colorectal carcinoma HCT116 cells: HEK293T IC50 versus HCT116 GI50; for average cancer cell fold selectivity: HEK293T IC50 versus average NCI-60 GI50; for IC50: read-out: IC50 (μM ± SD) normal HEK293T cells, MTT, 48 h, triplicate; for cancer cell selectivity compared to non-cancerous HEK293T cells: up to"}, "[9]": {"test_system": "hypoxic LOX IMVI cells", "assay": "cells", "details": "Homo sapiens, 48 h, read-out: Cytotoxicity IC50 (μM ± SD) LOX IMVI"}, "[10]": {"test_system": "HEK293T cells", "assay": "cells", "details": "Homo sapiens, HEK-293T, 48 h, read-out: IC50 (μM ± SD) normal HEK293T cells, MTT, 48 h, triplicate"}, "[11]": {"test_system": "hCA I, II, IX, and XII", "assay": "stopped-flow CO2 hydration inhibition assay, across the four isoforms", "type": "biochemical, human"}, "[12]": {"molecular_target": "T1, recombinant Pim-1 kinase (Homo sapiens, UniProt P11309)", "T1 sequence (P11309 whole entry)": "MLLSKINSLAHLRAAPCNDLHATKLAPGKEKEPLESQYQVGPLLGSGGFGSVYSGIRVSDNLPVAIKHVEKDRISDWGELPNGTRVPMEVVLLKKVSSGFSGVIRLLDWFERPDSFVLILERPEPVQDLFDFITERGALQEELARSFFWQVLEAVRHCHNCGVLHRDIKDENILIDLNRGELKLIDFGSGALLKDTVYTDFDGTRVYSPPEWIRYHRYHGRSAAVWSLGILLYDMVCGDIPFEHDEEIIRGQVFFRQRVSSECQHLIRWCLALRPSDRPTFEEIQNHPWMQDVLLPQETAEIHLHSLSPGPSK", "assay": "biochemical", "details": "Pim-1 kinase IC50 (μM ± SD), ADP-Glo"}, "[13]": {"test_system": "K-562", "assay": "NCI-60 SRB screen", "type": "cell-based", "details": "Homo sapiens, K562, 48 h"}, "[14]": {"test_system": "Nrf2 in HCT116 cell nuclei", "assay": "Nrf2 transcription factor ELISA on nuclear protein", "type": "cell-based, human"}, "[15]": {"molecular_target": "T1, recombinant Pim-1 kinase"}, "[16]": {"test_system": "HCT116 cells", "assay": "Annexin V-FITC/PI apoptosis assay", "type": "cell-based, human", "details": "HCT116, 2.94 μM, 24 h"}, "[17]": {"test_system": "HCT116 cells", "assay": "cell cycle analysis by propidium iodide flow cytometry", "type": "cell-based, human", "details": "HCT116, 2.94 μM, 24 h"}, "[18]": {"test_system": "ROS level in HCT116 cells", "assay": "reactive oxygen species fluorometric assay", "type": "cell-based, human", "details": "HCT116, 2.94 μM"}, "[19]": {"test_system": "HCT15", "assay": "NCI-60 SRB screen", "type": "cell-based", "details": "Homo sapiens, HCT-15, 48 h"}}, "note": "Several values for one entry are separate records, joined by “and”; a condition that tells them apart may be missing. Equal entries are not always repeated. Entries after “also recorded” stand apart in the source; their conditions may differ. Where two headings read alike, the source gives them in different places.", "data": [{"compound": "COc1ccc(C(=O)/C=C/c2ccccc2Cl)cc1S(N)(=O)=O", "note": "[4a, 5-[(2E)-3-(2-Chlorophenyl)prop-2-enoyl]-2-methoxybenzene-1-sulfonamide]", "values": [{"measurement": "Ki", "setting": "[1]", "value": "> 10", "unit": "µM"}, {"measurement": "Ki", "setting": "[2]", "value": "> 10", "unit": "µM"}, {"measurement": "Ki", "setting": "[3]", "value": "> 10", "unit": "µM"}, {"measurement": "Ki", "setting": "[4]", "value": "> 10", "unit": "µM"}]}, {"compound": "COc1ccc(C(=O)/C=C/c2cccc(Cl)c2)cc1S(N)(=O)=O", "note": "[4b, 5-[(2E)-3-(3-Chlorophenyl)prop-2-enoyl]-2-methoxybenzene-1-sulfonamide]", "values": [{"measurement": "Ki", "setting": "[1]", "value": "> 10", "unit": "µM"}, {"measurement": "Ki", "setting": "[2]", "value": "> 10", "unit": "µM"}, {"measurement": "Ki", "setting": "[3]", "value": "> 10", "unit": "µM"}, {"measurement": "GI50", "setting": "[5]", "value": "sub-micromolar"}, {"measurement": "Ki", "setting": "[4]", "value": "> 10", "unit": "µM"}]}, {"compound": "COc1ccc(C(=O)/C=C/c2ccccc2Br)cc1S(N)(=O)=O", "note": "[4c, 5-[(2E)-3-(2-Bromophenyl)prop-2-enoyl]-2-methoxybenzene-1-sulfonamide]", "values": [{"measurement": "Ki", "setting": "[1]", "value": "> 10", "unit": "µM"}, {"measurement": "Ki", "setting": "[2]", "value": 4.71, "unit": "µM"}, {"measurement": "Ki", "setting": "[3]", "value": "> 10", "unit": "µM"}, {"measurement": "Ki", "setting": "[4]", "value": "> 10", "unit": "µM"}]}, {"compound": "COc1ccc(C(=O)/C=C/c2cccc(Br)c2)cc1S(N)(=O)=O", "note": "[4d, 5-[(2E)-3-(3-Bromophenyl)prop-2-enoyl]-2-methoxybenzene-1-sulfonamide]", "values": [{"measurement": "IC50", "setting": "[6]", "value": "14.8 ± 0.61", "unit": "µM"}, {"measurement": "Ki", "setting": "[1]", "value": 0.85, "unit": "µM"}, {"measurement": "IC50", "setting": "[7]", "value": "6.32 ± 0.38", "unit": "µM"}, {"measurement": "selectivity against colorectal carcinoma HCT116 cells", "setting": "[8]", "value": "ca. 50 fold"}, {"measurement": "average cancer cell fold selectivity", "setting": "[8]", "value": "ca. 20 fold"}, {"measurement": "IC50", "setting": "[8]", "value": "52.7 ± 2.03", "unit": "µM"}, {"measurement": "cancer cell selectivity compared to non-cancerous HEK293T cells", "setting": "[8]", "value": "up to 50 fold"}, {"measurement": "IC50", "setting": "[9]", "value": "38.3 ± 1.63", "unit": "µM"}, {"measurement": "GI50", "setting": "[5]", "value": "sub-micromolar"}, {"measurement": "IC50", "setting": "[10]", "value": "~53", "unit": "µM"}, {"measurement": "selectivity toward hCA I and hCA II over hCA IX and hCA XII", "setting": "[11]", "value": "ca. 10 fold"}, {"measurement": "Ki", "setting": "[11]; read-out: average Ki value against the four tested isoforms, hCA I, II, IX, XII", "value": 4, "unit": "µM"}, {"measurement": "IC50", "setting": "[12]", "value": "~1.06 µM and 1.06 µM"}, {"measurement": "Ki", "setting": "[4]", "value": 0.5, "unit": "µM"}]}, {"compound": "COc1ccccc1/C=C/C(=O)c1ccc(OC)c(S(N)(=O)=O)c1", "note": "[4e, 2-Methoxy-5-[(2E)-3-(2-methoxyphenyl)prop-2-enoyl]benzene-1-sulfonamide]", "values": [{"measurement": "GI50", "setting": "[13]", "value": 0.35, "unit": "µM"}]}, {"compound": "COc1ccc(C(=O)/C=C/c2ccc(Cl)c(Cl)c2)cc1S(N)(=O)=O", "note": "[4i, 5-[(2E)-3-(3,4-Dichlorophenyl)prop-2-enoyl]-2-methoxybenzene-1-sulfonamide]", "values": [{"measurement": "GI50", "setting": "[5]", "value": "sub-micromolar"}]}, {"compound": "COc1ccc(C(=O)/C=C/c2cccc3ccccc23)cc1S(N)(=O)=O", "note": "[4j, 2-Methoxy-5-[(2E)-3-(naphthalen-1-yl)prop-2-enoyl]benzene-1-sulfonamide]", "values": [{"measurement": "IC50", "setting": "[6]", "value": "4.6 ± 0.26", "unit": "µM"}, {"measurement": "Ki", "setting": "[1]", "value": "> 10", "unit": "µM"}, {"measurement": "selectivity to hCA IX over hCA I and hCA II / other tested isoforms", "setting": "[2]", "value": "ca. six-fold selectivity; also recorded: more than six-fold selective; also recorded: greater than six-fold selectivity"}, {"measurement": "fold increase in transcriptionally active nuclear Nrf2", "setting": "[14]; HCT116, 2.94 μM, versus DMSO", "value": "ca. 3.3 fold"}, {"measurement": "Nrf2 (ng/mL ± SD)", "setting": "[14]; HCT116 nuclei, 2.94 μM, control 0.89", "value": 2.92, "unit": "ng/mL"}, {"measurement": "IC50", "setting": "[7]", "value": "2.94 ± 0.19", "unit": "µM"}, {"measurement": "fold more potent than staurosporine on Pim-1 kinase", "setting": "[15]", "value": "ca. 1.4 fold"}, {"measurement": "selectivity against colorectal carcinoma HCT116 cells", "setting": "[8]", "value": "~15", "unit": "fold"}, {"measurement": "average cancer cell fold selectivity", "setting": "[8]", "value": "~9", "unit": "fold"}, {"measurement": "IC50", "setting": "[8]", "value": "20.4 ± 0.94", "unit": "µM"}, {"measurement": "cancer cell selectivity compared to non-cancerous HEK293T cells", "setting": "[8]", "value": "up to 50 fold"}, {"measurement": "IC50", "setting": "[9]", "value": "12.1 ± 0.54", "unit": "µM"}, {"measurement": "GI50", "setting": "[5]", "value": "sub-micromolar"}, {"measurement": "IC50", "setting": "[10]", "value": "~20", "unit": "µM"}, {"measurement": "early apoptosis", "setting": "[16]", "value": 8.3, "unit": "%"}, {"measurement": "fold increase of total apoptotic cells versus control", "setting": "[16]", "value": 25, "unit": "fold"}, {"measurement": "late apoptosis", "setting": "[16]", "value": 27.8, "unit": "%"}, {"measurement": "total apoptotic cells", "setting": "[16]", "value": 39.5, "unit": "%"}, {"measurement": "cell cycle arrest phase", "setting": "[17]", "value": "arrested the cell cycle of HCT116 cells at the G1/S phase; also recorded: arresting cell growth at the G1/S phase"}, {"measurement": "percentage of cells at the G2/M phase", "setting": "[17]", "value": 6, "unit": "%"}, {"measurement": "percentage of cells in G1 (G0-G1) phase", "setting": "[17]", "value": 52, "unit": "%"}, {"measurement": "percentage of cells in S phase", "setting": "[17]", "value": 42, "unit": "%"}, {"measurement": "IC50", "setting": "[12]", "value": "~0.34 µM and 0.34 µM"}, {"measurement": "Ki", "setting": "[4]", "value": "> 10", "unit": "µM"}, {"measurement": "ROS level increase compared to DMSO-treated cells", "setting": "[18]", "value": "ca. 50%"}]}, {"compound": "COc1ccc(C(=O)/C=C/c2ccc3ccccc3c2)cc1S(N)(=O)=O", "note": "[4k, 2-Methoxy-5-[(2E)-3-(Naphthalen-2-Yl)Prop-2-Enoyl]Benzene-1-Sulfonamide]", "values": [{"measurement": "Ki", "setting": "[1]", "value": "> 10", "unit": "µM"}, {"measurement": "GI50", "setting": "[19]", "value": 0.58, "unit": "µM"}, {"measurement": "Ki", "setting": "[2]", "value": "> 10", "unit": "µM"}, {"measurement": "Ki", "setting": "[3]", "value": "> 10", "unit": "µM"}, {"measurement": "GI50", "setting": "[5]", "value": "sub-micromolar"}, {"measurement": "Ki", "setting": "[4]", "value": "> 10", "unit": "µM"}]}, {"compound": "COc1ccc(C(=O)/C=C/c2cc3c(cc2Br)OCO3)cc1S(N)(=O)=O", "note": "[4l, 5-[(2E)-3-(6-Bromo-2H-1,3-benzodioxol-5-yl)prop-2-enoyl]-2-methoxybenzene-1-sulfonamide]", "values": [{"measurement": "Ki", "setting": "[1]", "value": "> 10", "unit": "µM"}, {"measurement": "GI50", "setting": "[13]", "value": 0.45, "unit": "µM"}]}, {"compound": "COc1ccc(C(C)=O)cc1S(N)(=O)=O", "note": "[compound 3, 5-acetyl-2-methoxybenzene-1-sulfonamide]", "values": [{"measurement": "Ki", "setting": "[1]", "value": 2.32, "unit": "µM"}, {"measurement": "Ki", "setting": "[2]", "value": 1.39, "unit": "µM"}, {"measurement": "Ki", "setting": "[3]", "value": 5.25, "unit": "µM"}, {"measurement": "Ki", "setting": "[4]", "value": 4.59, "unit": "µM"}]}]}
